What was measured:
[1] = test system: apoptosis inhibitor of macrophage (AIM); conditions: mouse macrophage-derived cells (J774.1) cultured with isoxanthohumol; cited from earlier work
[2] = test system: mouse preadipocyte (3T3-L1); conditions: 3T3-L1, concentration without cytotoxicity; cited from earlier work
Pgc-1α gene = assay: Gene expression in brown adipose tissue by quantitative PCR, high-fat diet model; assay type: in vivo, mice (C57BL/6J); conditions: isoxanthohumol 30 or 60 mg/kg/day oral, 14 days
Source text: (§1) Using the high-fat diet model, the effect of isoxanthohumol intake on expression of a gene related to fat burning was studied by the following procedure.
(§2) Thirty-two mice (C57BL/6J, male, 8 weeks of age, CLEA Japan, Inc.) were purchased and acclimatized for about one week. Then, the mice were divided into groups (n=8 in each group) in the group structure shown in Table 2 by the stratified continuous randomization method based on body weight. […] In Table 2, “Regular diet” is control diet “D12450J” (Research Diets), and “60 kcal % High-fat diet” is very high-fat diet “D12492” (Research Diets). Isoxanthohumol as the test substance was the standard sample (purity of 95% or higher) obtained in Preparation Example 1. […]
(§3) The test period was 14 days. […] The amount of the test substance and the volume of the solution were calculated based on the latest body weight on the administration date. […]
(§4) Using the extracted liver and brown adipose tissue, the effect of isoxanthohumol intake on expression of multiple genes related to lipid metabolism was studied. […] Then, cDNAs were synthesized using High-Capacity cDNA Reverse Transcription Kit (product name, Life Technologies Corporation), and the expression levels of genes shown in Table 3 were examined by quantitative PCR (TaqMan probe method) using Fast Universal PCR Master Mix (product name, Life Technologies Corporation). […]

Ucp1 gene = assay: as above; assay type: in vivo, mice (C57BL/6J); conditions: isoxanthohumol 30 or 60 mg/kg/day oral, 14 days
Source text: as §1, §2, §3, §4

Acox1 gene = assay: Gene expression in liver by quantitative PCR, high-fat diet model; assay type: in vivo, mice (C57BL/6J); conditions: isoxanthohumol 30 or 60 mg/kg/day oral, 14 days
Source text: as §1, §2, §3, §4

Cpt1a gene = assay: as above; assay type: in vivo, mice (C57BL/6J); conditions: isoxanthohumol 30 or 60 mg/kg/day oral, 14 days
Source text: as §1, §2, §3, §4

high-fat diet model = assay: Anti-obesity action in high-fat diet model (body weight, fat weight); assay type: in vivo, Mice (C57BL/6J)
Source text: The effect of isoxanthohumol on body weight increase and fat accumulation associated with high-fat diet was studied by the following procedure. In the table, “Regular diet” is control diet “D12450J” (product name, Research Diets); “60 kcal % High-fat diet” is very high-fat diet “D12492” (product name, Research Diets); and “Catechins” is a preparation “Polyphenon 70A” (product name, Mitsui Norin Co., Ltd.). Xanthohumol and isoxanthohumol were the standard samples (purity of 95% or higher) obtained in Preparation Example 1. The “Dose” in the table indicates the dose (mg) of the test substance per day per kg body weight. The main evaluation items were the body weight and the fat weight (fat around epididymis, fat around kidney/posterior abdominal wall, and fat around mesentery) of each individual (each item was measured on the last day: day 55 of administration). Mice (C57BL/6J, male, 7 weeks of age, CLEA Japan, Inc.) were purchased, and they were quarantine and acclimatized for one week. […] The selected animals were divided into groups (n=8 in each group) in the group structure shown in Table 1 by the stratified continuous randomization method based on body weight at the end of the acclimatization period. They were fed with free access to specific basic feed and water. The test substance was orally administered once per day for eight weeks. The test substance was administered until day 55, with the dosing start date defined as day 0. The duration was regarded as an administration period. During the administration period, the feed was completely replaced with a frequency of twice a week. The volume of a dosing solution was 10 mL/kg, and the amount of the test substance and the volume of the solution were calculated based on the latest body weight on the administration date. After the administration period, adipose tissue (fat around epididymis, fat around kidney/posterior abdominal wall, fat around mesentery) was extracted, and the weight was measured. Statistical analysis was performed as follows. Specifically, the average and standard error were calculated for body weight and fat weight in each group. Statistical processing was performed using Microsoft Office Excel 2003, and significant difference was tested between the regular diet group and the high-fat diet group and between the high-fat diet group and the groups excluding the regular diet group. As a statistical method, the homogeneity of variance was tested using the F-test. Student's T-test was used for homoscedasticity, and Aspin-Welch t-test was used for heteroscedasticity.

[3] = 60 mg/kg/day oral, day 55, compared to high-fat diet group
[4] = 180 mg/kg/day oral, day 55, compared to high-fat diet group

Q: Which results are given for COc1cc(O)c(CC=C(C)C)c2c1C(=O)CC(c1ccc(O)cc1)O2 (stereo not drawn) [isoxanthohumol]?
A: expression of lipolysis-promoting factor AIM [1]: enhanced expression; differentiation of the cells into adipocytes [2]: did not suppress differentiation; Pgc-1α gene expression in the brown adipose tissue (Pgc-1α gene): significant increase; expression level of Ucp1 gene in brown adipose tissue (Ucp1 gene): increase in expression level; gene expression level of Acox1 gene in the liver (Acox1 gene): significant increase; gene expression level of Cpt1a gene in the liver (Cpt1a gene): significant increase; fat weight around epididymis (high-fat diet model; [3]): significantly low; fat weight around mesentery (high-fat diet model; [3]): significantly low; fat weight around epididymis (high-fat diet model; [4]): significantly low; fat weight around kidney/posterior abdominal wall (high-fat diet model; [4]): significantly low; fat weight around mesentery (high-fat diet model; [4]): significantly low; average body weight compared with xanthohumol medium-dose group (high-fat diet model; isoxanthohumol 60 mg/kg vs xanthohumol 60 mg/kg, day 55): equivalent to that of the xanthohumol medium-dose group; average body weight compared with catechins group (high-fat diet model; isoxanthohumol 180 mg/kg vs catechins 300 mg/kg, day 55): better result; body weight (high-fat diet model; isoxanthohumol high-dose 180 mg/kg/day oral, day 55, compared to high-fat diet group): significantly low; body weight (high-fat diet model; isoxanthohumol medium-dose 60 mg/kg/day oral, day 55, compared to high-fat diet group): tended to have a low body weight

From patent US11066629B2, “Lipid metabolism-promoting composition including isoxanthohumol” (SUNTORY HOLDINGS LIMITED, priority 2016, dated 2021)
